# Measured values published in publication PMC10584170, “Machine learning-based phenotypic imaging to characterise the targetable biology of Plasmodium falciparum male gametocytes for the development of transmission-blocking antimalarials” (PLOS Pathogens, 2023).
# Legend:
# [1] = test system: P. falciparum male gametocytes; assay: P. falciparum Dual Gamete Formation Assay (PfDGFA), male readout (exflagellation); type: cell-based, Plasmodium falciparum NF54; conditions: for Average inhibition male (%): average of replicates; for % inhibition male (individual replicates) R1: replicate R1; for % inhibition male (individual replicates) R3: replicate R3; for % inhibition male (individual replicates) R4: replicate R4; for Activity: hit = >50% inhibition in male or female readout in at least 3 replicates, 0 = no class assigned
# How it was run: (§1)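 NF54 mature gametocytes (d14), cpd 24 h 37°C hypoxic gas; trigger: xanthurenic acid ookinete medium + Cy3 anti-Pfs25, 4°C 4 min → 28°C 4 min. Male: exflagellation centres, brightfield x6. Female: Pfs25+ gametes, fluorescence, +24 h 28°C dark.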
# [2] = test system: P. falciparum female gametocytes; assay: P. falciparum Dual Gamete Formation Assay (PfDGFA), female readout (Pfs25-positive female gametes); type: cell-based, Plasmodium falciparum NF54; conditions: for Average inhibition female (%): average of replicates; for % inhibition female (individual replicates) R1: replicate R1; for % inhibition female (individual replicates) R3: replicate R3; for % inhibition female (individual replicates) R4: replicate R4
# How it was run: as §1
# [3] = 2µM, 24h preincubation with gametocytes prior to induction of gametogenesis
# [4] = 2µM, 24h preincubation, number of replicates with >50% inhibition in the male readout
# [5] = 2µM, 24h preincubation, number of replicates with >50% inhibition in the female readout
# [6] = 2µM, 24h preincubation, hits selected on >50% inhibition in the male readout across replicates
# [7] = PfDGFA at 2µM, 24h preincubation
# [8] = 2µM, 24h preincubation, hits selected on >50% inhibition in the female readout across replicates
# [9] = PfDGFA at 2µM, 24h preincubation with gametocytes prior to induction of gametogenesis
# [10] = PfDGFA at 2µM, 24h preincubation with gametocytes
SMILES,"Average inhibition male (%) [1, 3]","% inhibition male (individual replicates) R1 [1, 3]","% inhibition male (individual replicates) R3 [1, 3]","% inhibition male (individual replicates) R4 [1, 3]","HitlevelM [1, 4]","Average inhibition female (%) [2, 3]","% inhibition female (individual replicates) R1 [2, 3]","% inhibition female (individual replicates) R3 [2, 3]","% inhibition female (individual replicates) R4 [2, 3]","HitlevelF [2, 5]","HitlevelM [1, 6]","Activity [1, 7]","HitlevelF [2, 8]",further results
O=C(O)C(F)(F)F.O=S(=O)(NCCN1CCCC1)c1ccc(-c2ccc(CNC3Cc4ccccc4C3)cc2)s1 [TCMDC-132234],17.3%,15.3%,1.0%,34.9%,0,29.4%,25.4%,5.2%,45.9%,0,,,,
COc1c(CNCCCCCCNCc2c(OC)c(OC)c3ccccc3c2OC)c(OC)c2ccccc2c1OC.CS(=O)(=O)O [TCMDC-137837],26.0%,25.5%,24.6%,53.4%,,13.6%,13.3%,14.5%,16.6%,,1,0,0,
COc1ccc(-c2csc3nc(C)nc(Cl)c23)cc1OC [TCMDC-125523],-3.5%,-8.3%,-15.7%,6.2%,,3.7%,4.5%,-29.0%,16.0%,,0,0,0,
COc1ccc(CNCc2ccc(F)cc2)cc1-c1ccc(S(=O)(=O)NCCN2CCCC2)cc1.O=C(O)C(F)(F)F [TCMDC-132294],-4.3%,-26.4%,,1.5%,0,26.6%,28.2%,29.3%,24.2%,0,,,,
CN(C)Cc1ccc(-c2ccc(NC(=O)c3ccc4c(=O)n(Cc5ccccc5)cnc4c3)cc2)cc1 [TCMDC-132361],62.7%,57.2%,,53.6%,3,36.5%,37.4%,28.0%,35.8%,0,,,,
O=C(NCc1ccccc1[S+]([O-])c1ccccc1CO)C(F)(F)F (stereo not drawn) [TCMDC-137886],,,,,,,,,,,,,,"% inhibition male (individual replicates) R1 [1, 9]: 18.6%; % inhibition male (individual replicates) R3 [1, 9]: -28.2%; % inhibition male (individual replicates) R4 [1, 9]: -31.1%; Average inhibition male (%) [1, 7]: -8.4%; % inhibition female (individual replicates) R1 [2, 9]: 9.6%; % inhibition female (individual replicates) R3 [2, 9]: -29.2%; % inhibition female (individual replicates) R4 [2, 9]: 19.1%; Average inhibition female (%) [2, 7]: 3.3%"
COc1cc2nc(N3CCC(CCCC4CCNCC4)CC3)nc(NCc3ccccn3)c2cc1OC.O=C(O)C(F)(F)F [TCMDC-138494],,,,,,,,,,,,,,"Average inhibition male (%) [1, 10]: 68.1%; % inhibition male (individual replicates) R1 [1, 10]: 83.7%; % inhibition male (individual replicates) R3 [1, 10]: 75.6%; % inhibition male (individual replicates) R4 [1, 10]: 100.2%; HitlevelM ([1]; number of replicates with >50% inhibition in the male readout, 2µM): 3; Average inhibition female (%) [2, 10]: 59.5%; % inhibition female (individual replicates) R1 [2, 10]: 47.2%; % inhibition female (individual replicates) R3 [2, 10]: 73.7%; % inhibition female (individual replicates) R4 [2, 10]: 83.6%; HitlevelF ([2]; number of replicates with >50% inhibition in the female readout, 2µM): 2"
CN1CCC(NCc2ccc(-c3ccc(S(=O)(=O)NCc4ccccc4)cc3)cc2)CC1.O=C(O)C(F)(F)F [TCMDC-132227],43.4%,32.1%,,43.3%,1,19.1%,9.9%,31.6%,17.4%,0,,,,
CN(C)CCC1CCN(CCS(=O)(=O)c2cccc(Nc3ncc(-c4cccc(F)c4)cn3)c2)CC1 [TCMDC-134374],10.6%,1.8%,-1.4%,25.6%,0,19.0%,15.2%,18.5%,17.0%,0,,,,
CC(CCCC(=O)Nc1ccc(CC(C)NCCc2cccc(Cl)c2)cc1)NCCc1cccc(Cl)c1 (stereo not drawn) [TCMDC-139798],45.7%,47.5%,7.0%,68.9%,,14.3%,14.3%,3.2%,8.4%,,2,0,0,
N=C(N)Nc1nc(-c2cccc(NC(=O)NCCc3c[nH]c4ccc(OCc5ccccc5)cc34)c2)cs1 [TCMDC-139557],6.6%,1.3%,4.0%,10.9%,,5.9%,1.1%,-17.0%,37.8%,,0,0,0,
COc1ccc(NC(=O)[C@H](CC(C)C)Nc2cc(C)nc(NCc3ccccc3C)n2)cc1.O=C(O)C(F)(F)F [TCMDC-134909],9.0%,15.3%,-6.1%,18.9%,,7.3%,5.6%,-14.2%,28.8%,,0,0,0,
CCCCCCN1CCC(NCc2ccc(OCCN3CCCC3)cc2)CC1.O=C(O)C(F)(F)F [TCMDC-141663],7.0%,26.8%,-12.7%,-11.8%,,15.8%,20.0%,13.5%,15.0%,,0,0,0,
O=C(O)C(F)(F)F.O=S(=O)(NCCN1CCCC1)c1ccc(-c2ccc(CNC3Cc4ccccc4C3)cc2)cc1 [TCMDC-132229],10.7%,12.4%,8.7%,9.5%,0,26.6%,21.5%,7.4%,45.3%,0,,,,
C=CCn1ccc2c3c(N)nc(N)nc3ccc21 [TCMDC-137995],,,,,,,,,,,,,,"% inhibition male (individual replicates) R1 [1, 9]: 38.6%; % inhibition male (individual replicates) R3 [1, 9]: 29.0%; % inhibition male (individual replicates) R4 [1, 9]: 16.7%; Average inhibition male (%) [1, 7]: 27.9%; % inhibition female (individual replicates) R1 [2, 9]: -8.1%; % inhibition female (individual replicates) R3 [2, 9]: -14.1%; % inhibition female (individual replicates) R4 [2, 9]: 22.9%; Average inhibition female (%) [2, 7]: -3.2%"
O=C(Nc1ccc(C(=O)OCC2CCCCC2)cc1)N[C@@H](Cc1ccc(O)cc1)C(=O)NC1CCN(Cc2ccc(O)cc2)C1.O=C(O)C(F)(F)F (stereo partly drawn) [TCMDC-135357],-19.1%,-13.6%,-12.1%,-40.5%,,4.9%,8.9%,10.5%,8.3%,,0,0,0,
COc1ccc(OC)c(C=CC(=O)NC2CCC(CN3CCC(c4c[nH]c5ccccc45)CC3)CC2)c1 (stereo not drawn) [TCMDC-139893],,,,,,,,,,,,,,"% inhibition male (individual replicates) R1 [1, 9]: 4.2%; % inhibition male (individual replicates) R3 [1, 9]: -21.0%; % inhibition male (individual replicates) R4 [1, 9]: 20.2%; Average inhibition male (%) [1, 7]: 1.9%; % inhibition female (individual replicates) R1 [2, 9]: 6.5%; % inhibition female (individual replicates) R3 [2, 9]: -21.7%; % inhibition female (individual replicates) R4 [2, 9]: -6.1%; Average inhibition female (%) [2, 7]: -1.6%"
